Test system: SIVmac239
Type: in vivo, rhesus macaques (Macaca mulatta)

C[C@H](Cn1cnc2c(N)ncnc21)OCP(=O)(O)O [PMPA, 9-R-(2-phophorylmethoxypropyl) adenine]
viral loads after termination of PMPA therapy (Group 2: no further treatment, Group 3: extract 3.3 NU/kg s.c. daily for 60 days, initiated 2 days prior to termination of PMPA): viral loads rebounded soon after the discontinuation of PMPA therapy | plasma viral loads (by day 28 of PMPA therapy, 30 mg/kg s.c. daily for 28 days, Groups 2 and 3): 100 to 1000 viral copies per mL
